# Measurements from PubChem BioAssay (NCI).
#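 GI50 marks 50% less growth. TGI: concentration producing complete growth inhibition.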
# Experiments:
# Assay in all cases: NCI anticancer screen, dose series, 384-well format
# CAKI-1 renal = system: CAKI-1 renal
# SF-268 CNS = system: SF-268 CNS
# HOP-92 NSCLC = system: HOP-92 NSCLC
# NCI-H23 lung = system: NCI-H23 lung
# NCI-H460 NSCLC = system: NCI-H460 NSCLC
# RPMI-8226 leukemia = system: RPMI-8226 leukemia
# HL-60(TB) leukemia = system: HL-60(TB) leukemia
# MDA-MB-231 breast = system: MDA-MB-231 breast
# M14 melanoma = system: M14 melanoma
# NCI/ADR-RES ovarian = system: NCI/ADR-RES ovarian
# HS 578T breast = system: HS 578T breast
# NCI-H522 lung = system: NCI-H522 lung
# OVCAR-8 ovarian = system: OVCAR-8 ovarian
# OVCAR-4 ovarian = system: OVCAR-4 ovarian
# EKVX NSCLC = system: EKVX NSCLC
# MCF7 breast = system: MCF7 breast
# SR leukemia = system: SR leukemia
# K-562 leukemia = system: K-562 leukemia
# ACHN renal = system: ACHN renal
# MALME-3M melanoma = system: MALME-3M melanoma
# HCC-2998 colon = system: HCC-2998 colon
# A549 NSCLC = system: A549 NSCLC
# SNB-19 CNS = system: SNB-19 CNS
# HOP-62 NSCLC = system: HOP-62 NSCLC
# CCRF-CEM leukemia = system: CCRF-CEM leukemia
# BT-549 breast = system: BT-549 breast
# UO-31 renal = system: UO-31 renal
# IGROV1 ovarian = system: IGROV1 ovarian
# OVCAR-3 ovarian = system: OVCAR-3 ovarian
# SF-295 CNS = system: SF-295 CNS
# OVCAR-5 ovarian = system: OVCAR-5 ovarian
# MOLT-4 leukemia = system: MOLT-4 leukemia
# HCT-15 colon = system: HCT-15 colon
# COLO 205 colon = system: COLO 205 colon
# UACC-257 melanoma = system: UACC-257 melanoma
# NCI-H226 lung = system: NCI-H226 lung
# SF-539 CNS = system: SF-539 CNS
# DU-145 prostate = system: DU-145 prostate
# 786-0 renal = system: 786-0 renal
# SK-MEL-28 melanoma = system: SK-MEL-28 melanoma
# MDA-MB-435 melanoma = system: MDA-MB-435 melanoma
# LOX IMVI melanoma = system: LOX IMVI melanoma
# TK-10 renal = system: TK-10 renal
# SK-MEL-5 melanoma = system: SK-MEL-5 melanoma
# NCI-H322M lung = system: NCI-H322M lung
# SNB-75 CNS = system: SNB-75 CNS
# SW-620 colon = system: SW-620 colon
# PC-3 prostate = system: PC-3 prostate
# RXF 393 renal = system: RXF 393 renal
# SN12C renal = system: SN12C renal
# MDA-MB-468 breast = system: MDA-MB-468 breast
# UACC-62 melanoma = system: UACC-62 melanoma
# KM12 colon = system: KM12 colon
# T-47D breast = system: T-47D breast
structure (smiles),measurement,setting,value
COc1cc(OC)c(/C=C/S(=O)(=O)Cc2ccc(OC)c(NCC(=O)O)c2)c(OC)c1,GI50,CAKI-1 renal,46 nM
same,TGI,CAKI-1 renal,> 100 µM
same,GI50,SF-268 CNS,51 nM
same,TGI,SF-268 CNS,2040 nM
same,GI50,HOP-92 NSCLC,38.5 nM
same,TGI,HOP-92 NSCLC,4.17 µM
same,GI50,NCI-H23 lung,24.9 nM
same,TGI,NCI-H23 lung,77.4 nM
same,GI50,NCI-H460 NSCLC,22.6 nM
same,TGI,NCI-H460 NSCLC,59.3 nM
same,GI50,RPMI-8226 leukemia,19 nM
same,TGI,RPMI-8226 leukemia,37.5 nM
same,GI50,HL-60(TB) leukemia,33.6 nM
same,TGI,HL-60(TB) leukemia,101 nM
same,GI50,MDA-MB-231 breast,92.9 nM
same,TGI,MDA-MB-231 breast,> 100 µM
same,GI50,M14 melanoma,25.9 nM
same,TGI,M14 melanoma,82.7 nM
same,GI50,NCI/ADR-RES ovarian,16.4 nM
same,TGI,NCI/ADR-RES ovarian,36.4 nM
same,GI50,HS 578T breast,15.4 nM
same,TGI,HS 578T breast,34.7 nM
same,GI50,NCI-H522 lung,14.4 nM
same,TGI,NCI-H522 lung,33 nM
same,GI50,OVCAR-8 ovarian,30.3 nM
same,TGI,OVCAR-8 ovarian,93.8 nM
same,GI50,OVCAR-4 ovarian,24.6 nM
same,TGI,OVCAR-4 ovarian,95.5 nM
same,GI50,EKVX NSCLC,41.1 nM
same,TGI,EKVX NSCLC,> 100000 nM
same,GI50,MCF7 breast,47.3 nM
same,TGI,MCF7 breast,26 µM
same,GI50,SR leukemia,16.1 nM
same,TGI,SR leukemia,31.6 nM
same,GI50,K-562 leukemia,32.4 nM
same,TGI,K-562 leukemia,109 nM
same,GI50,ACHN renal,58.9 nM
same,TGI,ACHN renal,> 100 µM
same,GI50,MALME-3M melanoma,25.9 nM
same,TGI,MALME-3M melanoma,92.9 nM
same,GI50,HCC-2998 colon,40.5 nM
same,TGI,HCC-2998 colon,264 nM
same,GI50,A549 NSCLC,61.3 nM
same,TGI,A549 NSCLC,> 100 µM
same,GI50,SNB-19 CNS,43.9 nM
same,TGI,SNB-19 CNS,> 100 µM
same,GI50,HOP-62 NSCLC,42.6 nM
same,TGI,HOP-62 NSCLC,> 100 µM
same,GI50,CCRF-CEM leukemia,49.4 nM
same,TGI,CCRF-CEM leukemia,157 nM
same,GI50,BT-549 breast,48.1 nM
same,TGI,BT-549 breast,344 nM
same,GI50,UO-31 renal,86.2 nM
same,TGI,UO-31 renal,> 100 µM
same,GI50,IGROV1 ovarian,60.4 nM
same,TGI,IGROV1 ovarian,> 100 µM
same,GI50,OVCAR-3 ovarian,16.8 nM
same,TGI,OVCAR-3 ovarian,38.2 nM
same,GI50,SF-295 CNS,23.1 nM
same,TGI,SF-295 CNS,57.6 nM
same,GI50,OVCAR-5 ovarian,135 nM
same,TGI,OVCAR-5 ovarian,> 100 µM
same,GI50,MOLT-4 leukemia,64.1 nM
same,TGI,MOLT-4 leukemia,187 nM
same,GI50,HCT-15 colon,32.3 nM
same,TGI,HCT-15 colon,0.373 µM
same,GI50,COLO 205 colon,215 nM
same,TGI,COLO 205 colon,537 nM
same,GI50,UACC-257 melanoma,17.7 nM
same,TGI,UACC-257 melanoma,370 nM
same,GI50,NCI-H226 lung,38.3 nM
same,TGI,NCI-H226 lung,> 100 µM
same,GI50,SF-539 CNS,20.8 nM
same,TGI,SF-539 CNS,50.8 nM
same,GI50,DU-145 prostate,177 nM
same,TGI,DU-145 prostate,1040 nM
same,GI50,786-0 renal,30.7 nM
same,TGI,786-0 renal,607 nM
same,GI50,SK-MEL-28 melanoma,63.7 nM
same,TGI,SK-MEL-28 melanoma,> 100000 nM
same,GI50,MDA-MB-435 melanoma,17.1 nM
same,TGI,MDA-MB-435 melanoma,36.6 nM
same,GI50,LOX IMVI melanoma,45.7 nM
same,TGI,LOX IMVI melanoma,362 nM
same,GI50,TK-10 renal,50.9 nM
same,TGI,TK-10 renal,> 100 µM
same,GI50,SK-MEL-5 melanoma,19.5 nM
same,TGI,SK-MEL-5 melanoma,45.8 nM
same,GI50,NCI-H322M lung,90.9 nM
same,TGI,NCI-H322M lung,> 100 µM
same,GI50,SNB-75 CNS,35.1 nM
same,TGI,SNB-75 CNS,211 nM
same,GI50,SW-620 colon,33.8 nM
same,TGI,SW-620 colon,> 100 µM
same,GI50,PC-3 prostate,31.5 nM
same,TGI,PC-3 prostate,> 100 µM
same,GI50,RXF 393 renal,16.8 nM
same,TGI,RXF 393 renal,49.4 nM
same,GI50,SN12C renal,63.8 nM
same,TGI,SN12C renal,> 100000 nM
same,GI50,MDA-MB-468 breast,17.5 nM
same,TGI,MDA-MB-468 breast,42.3 nM
CC(=O)N[C@@H]1CCC[C@H](C(=O)Nc2cc(-c3cnn4c3CC(C)(C)C4)c(Cl)cn2)C1,GI50,UACC-62 melanoma,< 10 nM
same,TGI,UACC-62 melanoma,< 10 nM
same,GI50,CAKI-1 renal,< 10 nM
same,TGI,CAKI-1 renal,> 100 µM
same,GI50,SF-268 CNS,< 10 nM
same,TGI,SF-268 CNS,< 10 nM
same,GI50,NCI-H23 lung,< 10 nM
same,TGI,NCI-H23 lung,10.3 nM
same,GI50,NCI-H460 NSCLC,< 10 nM
same,TGI,NCI-H460 NSCLC,313 nM
same,GI50,RPMI-8226 leukemia,< 10 nM
same,TGI,RPMI-8226 leukemia,< 10 nM
same,GI50,HL-60(TB) leukemia,< 10 nM
same,TGI,HL-60(TB) leukemia,< 10 nM
same,GI50,M14 melanoma,< 10 nM
same,TGI,M14 melanoma,< 10 nM
same,GI50,NCI/ADR-RES ovarian,152 nM
same,TGI,NCI/ADR-RES ovarian,620 nM
same,GI50,HS 578T breast,< 10 nM
same,TGI,HS 578T breast,< 10 nM
same,GI50,NCI-H522 lung,14.8 nM
same,TGI,NCI-H522 lung,36 nM
same,GI50,OVCAR-4 ovarian,< 10 nM
same,TGI,OVCAR-4 ovarian,18.3 nM
same,GI50,EKVX NSCLC,< 10 nM
same,TGI,EKVX NSCLC,39.6 nM
same,GI50,SR leukemia,< 10 nM
same,TGI,SR leukemia,< 10 nM
same,GI50,ACHN renal,< 10 nM
same,TGI,ACHN renal,> 100 µM
same,GI50,MALME-3M melanoma,< 10 nM
same,TGI,MALME-3M melanoma,14.4 nM
same,GI50,HCC-2998 colon,< 10 nM
same,TGI,HCC-2998 colon,13.9 nM
same,GI50,SNB-19 CNS,< 10 nM
same,TGI,SNB-19 CNS,> 100 µM
same,GI50,CCRF-CEM leukemia,< 10 nM
same,TGI,CCRF-CEM leukemia,< 10 nM
same,GI50,BT-549 breast,< 10 nM
same,TGI,BT-549 breast,< 10 nM
same,GI50,UO-31 renal,24.5 nM
same,TGI,UO-31 renal,> 100 µM
same,GI50,KM12 colon,< 10 nM
same,TGI,KM12 colon,< 10 nM
same,GI50,IGROV1 ovarian,< 10 nM
same,TGI,IGROV1 ovarian,> 100 µM
same,GI50,OVCAR-3 ovarian,< 10 nM
same,TGI,OVCAR-3 ovarian,< 10 nM
same,GI50,MOLT-4 leukemia,< 10 nM
same,TGI,MOLT-4 leukemia,< 10 nM
same,GI50,HCT-15 colon,< 10 nM
same,TGI,HCT-15 colon,21.8 µM
same,GI50,COLO 205 colon,< 10 nM
same,TGI,COLO 205 colon,< 10 nM
same,GI50,UACC-257 melanoma,< 10 nM
same,TGI,UACC-257 melanoma,21.9 nM
same,GI50,SF-539 CNS,< 10 nM
same,TGI,SF-539 CNS,< 10 nM
same,GI50,SK-MEL-28 melanoma,< 10 nM
same,TGI,SK-MEL-28 melanoma,11.4 nM
same,GI50,MDA-MB-435 melanoma,< 10 nM
same,TGI,MDA-MB-435 melanoma,44.3 nM
same,GI50,SK-MEL-5 melanoma,< 10 nM
same,TGI,SK-MEL-5 melanoma,< 10 nM
same,GI50,NCI-H322M lung,< 10 nM
same,TGI,NCI-H322M lung,< 0.01 µM
same,GI50,SNB-75 CNS,< 10 nM
same,TGI,SNB-75 CNS,26.7 nM
same,GI50,T-47D breast,< 10 nM
same,TGI,T-47D breast,> 100 µM
same,GI50,RXF 393 renal,< 10 nM
same,TGI,RXF 393 renal,< 10 nM
same,GI50,SN12C renal,< 10 nM
same,TGI,SN12C renal,14 nM
same,GI50,MDA-MB-468 breast,< 10 nM
same,TGI,MDA-MB-468 breast,< 10 nM
